What was measured:
Cebus apella = test: Test for drug efficacy in Cebus apella (uric acid excretion rate); assay type: in vivo; details: 3 mg/kg to 30 mg/kg in 0.5% methylcellulose into stomach via the nasal cavity, up to 24 hours
Method: A test compound (3 mg/kg to 30 mg/kg) prepared by suspending in a 0.5% methylcellulose solution was administered to Cebus apella into stomach via the nasal cavity using a disposable catheter and a syringe barrel. Blood samples were taken before administration and 30 minutes, 1 hour, 2 hours, 4 hours, 8 hours, 12 hours, and 24 hours after administration; and urine samples were collected for the time intervals of immediately to 4 hours after administration, from 4 hours to 8 hours after administration, from 8 hours to 16 hours after administration, and from 16 hours to 24 hours after administration. Concentrations of uric acid and creatinine in the blood and urine samples collected were measured by an automatic analyzer (JEOL Ltd.). Uric acid and creatine were measured using L-type Wako UA.F (Wako Pure Chemicals Industries, Ltd.) and L-type Creatine F (Wako Pure Chemicals Industries, Ltd.) respectively. Uric acid clearance was calculated from the uric acid concentrations in blood and urine and, similarly, creatinine clearance was calculated from the creatinine concentrations.

human URAT1 = target: T1, human URAT1 (Homo sapiens, UniProt Q96S37); test: Test for inhibition of uric acid transport using human URAT1-expressing cells;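 note: three stars up to 0.2 µM two stars 0.2-2 µM one star 2-20 µM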; assay type: cell-based; details: HEK 293 cells expressing human URAT1; 14C-labeled uric acid 25 μM; uptake 37° C. for 5 min
T1 construct: Full-length cDNA of human URAT1 (hURAT1)
T1 sequence (Q96S37 1-553): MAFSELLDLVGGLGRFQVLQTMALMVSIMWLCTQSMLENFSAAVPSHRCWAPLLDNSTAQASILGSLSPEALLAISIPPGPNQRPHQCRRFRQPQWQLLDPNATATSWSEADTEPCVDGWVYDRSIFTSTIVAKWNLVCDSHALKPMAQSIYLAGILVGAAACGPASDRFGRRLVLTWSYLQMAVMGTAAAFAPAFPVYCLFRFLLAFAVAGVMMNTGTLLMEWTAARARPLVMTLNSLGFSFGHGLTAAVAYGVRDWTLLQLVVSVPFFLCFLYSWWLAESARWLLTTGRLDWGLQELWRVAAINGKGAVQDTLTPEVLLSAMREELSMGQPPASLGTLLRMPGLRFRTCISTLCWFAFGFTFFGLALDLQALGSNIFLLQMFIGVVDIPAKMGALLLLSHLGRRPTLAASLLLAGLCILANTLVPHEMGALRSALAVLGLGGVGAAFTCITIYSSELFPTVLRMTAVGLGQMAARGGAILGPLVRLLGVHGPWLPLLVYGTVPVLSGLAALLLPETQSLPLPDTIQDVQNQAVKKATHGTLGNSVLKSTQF
Summary of the method: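 HEK293 cells stably transfected with full-length hURAT1, preincubated 10 min at 37 °C in HBSS with NaCl replaced by Na gluconate. Uptake of 25 μM ¹⁴C-uric acid with compound ran 5 min at 37 °C, then scintillation counting. IC50 derived from % of DMSO-control URAT1-specific uptake.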

Inhibitory Activity (IC50 of uric acid transport inhibition) (human URAT1)	SMILES	uricosuric effect (uric acid excretion rate) (Cebus apella)
* *	Cc1nc(-c2cccnc2)n(Cc2cccc3ccccc23)c1C(=O)O [Compound A2, 4-methyl-1-(naphthalen-1-ylmethyl)-2-(pyridin-3-yl)-1H-imidazole-5-carboxylic acid]	excellent uricosuric effect was confirmed
* *	Cc1nc(-c2cccnc2)n(Cc2csc3cccc(Cl)c23)c1C(=O)O [Compound A7, 1-((4-chlorobenzo[b]thiophen-3-yl)methyl)-4-methyl-2-(pyridin-3-yl)-1H-imidazole-5-carboxylic acid]	excellent uricosuric effect was confirmed
* * *	CCc1nc(-c2cccnc2)n(Cc2cc(Cl)ccc2Cl)c1C(=O)O [Compound A14, 1-(2,5-dichlorobenzyl)-4-ethyl-2-(pyridin-3-yl)-1H-imidazole-5-carboxylic acid]	excellent uricosuric effect was confirmed
* * *	O=C(O)c1c(C2CC2)nc(-c2cccnc2)n1Cc1cc(Cl)ccc1Cl [Compound A15, 4-cyclopropyl-1-(2,5-dichlorobenzyl)-2-(pyridin-3-yl)-1H-imidazole-5-carboxylic acid]	excellent uricosuric effect was confirmed
* * *	Cc1cncc(-c2ccc(C(=O)O)n2Cc2csc3cccc(Cl)c23)c1 [Compound B15, 1-((4-chlorobenzo[b]thiophen-3-yl)methyl)-2-(5-methylpyridin-3-yl)-1H-pyrrole-5-carboxylic acid]	–
* * *	O=C(O)c1ccc(-c2cncc(Cl)c2)n1Cc1csc2cccc(Cl)c12 [Compound B18, 1-((4-chlorobenzo[b]thiophen-3-yl)methyl)-2-(5-chloropyridin-3-yl)-1H-pyrrole-5-carboxylic acid]	–
* * *	O=C(O)c1ccc(-c2cccnc2)n1Cc1cccc2ccsc12 [Compound B20, 1-(benzo[b]thiophen-7-ylmethyl)-2-(pyridin-3-yl)-1H-pyrrole-5-carboxylic acid]	–
* * *	O=C(O)c1ccc(-c2cncc(Cl)c2)n1Cc1cccc2ccsc12 [Compound B23, 1-(benzo[b]thiophen-7-ylmethyl)-2-(5-chloropyridin-3-yl)-1H-pyrrole-5-carboxylic acid]	–
* * *	CS(=O)(=O)NC(=O)c1ccc(-c2cccnc2)n1Cc1cccc2ccccc12 [Compound B24, N-(methylsulfonyl)-1-(naphthalen-1-ylmethyl)-2-(pyridin-3-yl)-1H-pyrrole-5-carboxamide]	–
* * *	O=C(NS(=O)(=O)C1CC1)c1ccc(-c2cccnc2)n1Cc1cccc2ccccc12 [Compound B25, N-(cyclopropylsulfonyl)-1-(naphthalen-1-ylmethyl)-2-(pyridin-3-yl)-1H-pyrrole-5-carboxamide]	–
* * *	O=C(NS(=O)(=O)C1CC1)c1ccc(-c2cncc(F)c2)n1Cc1cc(Cl)ccc1Cl [Compound B27, N-(cyclopropylsulfonyl)-1-(2,5-dichlorobenzyl)-2-(5-fluoropyridin-3-yl)-1H-pyrrole-5-carboxamide]	–
* * *	CS(=O)(=O)NC(=O)c1ccc(-c2cccnc2)n1Cc1cc(Cl)ccc1Cl [Compound B28, 1-(2,5-dichlorobenzyl)-N-(methylsulfonyl)-2-(pyridin-3-yl)-1H-pyrrole-5-carboxamide]	–
* * *	O=C(NS(=O)(=O)C1CC1)c1ccc(-c2cncc(Cl)c2)n1Cc1cc(Cl)ccc1Cl [Compound B30, 2-(5-chloropyridin-3-yl)-N-(cyclopropylsulfonyl)-1-(2,5-dichlorobenzyl)-1H-pyrrole-5-carboxamide]	–
* * *	O=C(NS(=O)(=O)C1CC1)c1ccc(-c2cccnc2)n1Cc1cc(Cl)ccc1Cl [Compound B31, N-(cyclopropylsulfonyl)-1-(2,5-dichlorobenzyl)-2-(pyridin-3-yl)-1H-pyrrole-5-carboxamide]	–
* * *	O=C(O)/C=C/c1ccc(-c2cccnc2)n1Cc1cccc2ccccc12 [Compound B33, (E)-3-(1-(naphthalen-1-ylmethyl)-2-(pyridin-3-yl)-1H-pyrrole-5-yl)acrylic acid]	–
* * *	O=C(O)/C=C/c1ccc(-c2cncc(F)c2)n1Cc1cc(Cl)ccc1Cl [Compound B35, (E)-3-(1-(2,5-dichlorobenzyl)-2-(5-fluoropyridin-3-yl)-1H-pyrrol-5-yl)acrylic acid]	–

The remaining lines, values behind:

SMILES	Inhibitory Activity (IC50 of uric acid transport inhibition) (human URAT1)	uricosuric effect (uric acid excretion rate) (Cebus apella)
Cc1ccc(C)c(Cn2c(-c3cccnc3)nc(C)c2C(=O)O)c1 [Compound A1, 1-(2,5-dimehylbenzyl)-4-methyl-2-(pyridin-3-yl)-1H-imidazole-5-carboxylic acid]	* *	excellent uricosuric effect was confirmed
Cc1nc(-c2cccnc2)n(Cc2cc(Cl)ccc2Cl)c1C(=O)O [Compound A13, 1-(2,5-dichlorobenzyl)-2-(pyridin-3-yl)-4-methyl-1H-imidazole-5-carboxylic acid]	* * *	excellent uricosuric effect was confirmed
O=C(O)c1c(C(F)(F)F)nc(-c2cccnc2)n1Cc1cc(Cl)ccc1Cl [Compound A19, 1-(2,5-dichlorobenzyl)-2-(pyridin-3-yl)-4-(trifluoromethyl)-1H-imidazole-5-carboxylic acid]	* * *	excellent uricosuric effect was confirmed
O=C(O)c1ccc(-c2cncc(F)c2)n1Cc1csc2cccc(Cl)c12 [Compound B16, 1-((4-chlorobenzo[b]thiophen-3-yl)methyl)-2-(5-fluoropyridin-3-yl)-1H-pyrrole-5-carboxylic acid]	* * *	–
O=C(O)c1ccc(-c2cncc(Cl)c2)n1Cc1cc(Cl)ccc1Cl [Compound B17, 2-(5-chloropyridin-3-yl)-1-(2,5-dichlorobenzyl)-1H-pyrrole-5-carboxylic acid]	* * *	–
O=C(O)c1ccc(-c2cccnc2)n1Cc1cccc2cccnc12 [Compound B19, 2-(pyridin-3-yl)-1-(quinolin-8-ylmethyl)-1H-pyrrole-5-carboxylic acid]	* *	–
Cc1cncc(-c2ccc(C(=O)O)n2Cc2cccc3ccsc23)c1 [Compound B21, 1-(benzo[b]thiophen-7-ylmethyl)-2-(5-methylpyridin-3-yl)-1H-pyrrole-5-carboxylic acid]	* * *	–
O=C(O)c1ccc(-c2cncc(F)c2)n1Cc1cccc2ccsc12 [Compound B22, 1-(benzo[b]thiophen-7-ylmethyl)-2-(5-fluoropyridin-3-yl)-1H-pyrrole-5-carboxylic acid]	* * *	–
CS(=O)(=O)NC(=O)c1ccc(-c2cncc(F)c2)n1Cc1cc(Cl)ccc1Cl [Compound B26, 1-(2,5-dichlorobenzyl)-2-(5-fluoropyridin-3-yl)-N-(methylsulfonyl)-1H-pyrrole-5-carboxamide]	* * *	–
CS(=O)(=O)NC(=O)c1ccc(-c2cncc(Cl)c2)n1Cc1cc(Cl)ccc1Cl [Compound B29, 2-(5-chloropyridin-3-yl)-1-(2,5-dichlorobenzyl)-N-(methylsulfonyl)-1H-pyrrole-5-carboxamide]	* * *	–
Cc1cncc(-c2ccc(C(=O)NS(=O)(=O)C3CC3)n2Cc2cc(Cl)ccc2Cl)c1 [Compound B32, N-(cyclopropylsulfonyl)-1-(2,5-dichlorobenzyl)-2-(5-methylpyridin-3-yl)-1H-pyrrole-5-carboxamide]	* * *	–
Cc1cncc(-c2ccc(/C=C/C(=O)O)n2Cc2cc(Cl)ccc2Cl)c1 [Compound B34, (E)-3-(1-(2,5-dichlorobenzyl)-2-(5-methylpyridin-3-yl)-1H-pyrrol-5-yl)acrylic acid]	* * *	–

— US9637469B2, “Pyridine derivative” (Teijin Pharma Limited, priority 2012, dated 2017)
